Laboratory results as given in ChEMBL document CHEMBL1201862, “PubChem BioAssay data set” (2004).
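Grown in 96-well plates, cells were treated for 48 hours with each compound at five concentrations. Insufficient inhibition: endpoint recorded as highest concentration tested. The concentration for 50% growth inhibition is given as GI50.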 Active and inactive are the calls of the source. Cut-off read from the data, not from the text of the source: active = GI50 up to about 1.1 µM and inactive = higher.

Key:
Test in all cases: DTP human tumour cell line panel, 48 h
[1] = test system: UACC-62
[2] = test system: SR
[3] = test system: PC-3
[4] = test system: HOP-92
[5] = test system: DU-145
[6] = test system: T47D
[7] = test system: CAKI-1
[8] = test system: SNB-75
[9] = test system: SK-MEL-28
[10] = test system: HL-60
[11] = test system: MCF7
[12] = test system: M14
[13] = test system: NCI-H23
[14] = test system: Hs-578T
[15] = test system: SNB-19
[16] = test system: SK-MEL-2
[17] = test system: ACHN
[18] = test system: A498
[19] = test system: NCI-H522
[20] = test system: OVCAR-5

Measured: GI50

CCC(=O)OC1=C(c2ccccc2)Sc2ccc(Cl)cc2-n2cccc21
inactive: [1] 8.73 µM | [2] 7.52 µM | [3] > 10 µM | [4] 5.78 µM | [5] > 10 µM | [6] > 10 µM | [7] > 10 µM | [8] > 10 µM | [9] > 10 µM | [10] 3.95 µM | [11] 7.21 µM | [12] > 10 µM | [13] 8.2 µM

Nc1ccc(-c2nc3ccc(F)cc3s2)cc1
inactive: [14] 20.2 µM | [1] 16.6 µM | [2] 77.3 µM | [15] 32.8 µM | [16] 19.8 µM | [3] 17.2 µM | [17] 21 µM | [4] 29.4 µM | [5] 23.7 µM | [7] 31.1 µM | [18] 30 µM | [19] 30.8 µM | [8] 31.5 µM | [9] 60.1 µM | [12] 36.4 µM | [13] 31.3 µM

C=Cc1nc2nnc(CCCCCCCCc3nnc4nc(C=C)[nH]n34)n2[nH]1
inactive: [15] > 100 µM | [16] > 100 µM | [3] > 100 µM | [17] > 100 µM | [5] > 100 µM | [7] > 100 µM | [18] 40.7 µM | [8] > 100 µM | [9] > 100 µM | [10] 34 µM | [11] 80.7 µM | [20] > 100 µM | [12] > 100 µM | [13] 67.8 µM

CN(C(=O)C1=CCC2(CC1)OCCO2)c1ccccc1OS(=O)(=O)C(F)(F)F
inactive: [1] > 100 µM | [2] > 100 µM | [15] > 100 µM | [16] > 100 µM | [3] > 100 µM | [17] > 100 µM | [4] > 100 µM | [5] > 100 µM | [6] > 100 µM | [7] > 100 µM | [18] > 100 µM | [8] 15.5 µM | [9] > 100 µM | [10] > 100 µM | [11] > 100 µM | [20] > 100 µM | [12] > 100 µM | [13] > 100 µM

NC(=S)N/N=C1\CCCCc2ccccc21
inactive: [2] > 10 µM | [15] > 10 µM | [16] > 10 µM | [3] > 10 µM | [17] > 10 µM | [5] > 10 µM | [6] 4.81 µM | [7] > 10 µM | [19] > 10 µM | [10] > 10 µM | [11] > 10 µM | [20] > 10 µM | [12] > 10 µM | [13] > 10 µM

CC(C)[Si](OC1=C(C(=O)N(C)c2ccccc2Cl)CCC1)(C(C)C)C(C)C
inactive: [15] 15.8 µM | [17] 19.9 µM | [4] 18.3 µM | [5] 22 µM | [6] 19.7 µM | [7] 18.7 µM | [18] 15.6 µM | [19] 14.1 µM | [8] 13.3 µM | [9] 21.5 µM | [20] 9.64 µM | [12] 19 µM | [13] 15.7 µM

COc1ccccc1NC(=O)C1=C(C)NC(C)=C(C(=O)Nc2ccccc2OC)C1c1ccc(C2C(C(=O)Nc3ccccc3OC)=C(C)NC(C)=C2C(=O)Nc2ccccc2OC)cc1
inactive: [1] 1.68 µM | [2] 1.53 µM | [15] 3.89 µM | [16] 2.08 µM | [17] 2.88 µM | [4] 3.29 µM | [7] 3.13 µM | [18] 6.12 µM | [19] 1.8 µM | [8] 10.2 µM | [9] 2.44 µM | [10] 1.46 µM | [20] 3.22 µM | [12] 1.61 µM | [13] 2.39 µM

Cc1ccc(/N=N/C(=O)NNc2ccc(C)cc2Br)c(Br)c1
inactive: [1] 10.9 µM | [2] 14.7 µM | [15] 32.5 µM | [16] 16.1 µM | [3] 11.9 µM | [17] 26.7 µM | [5] 19.9 µM | [6] 17.8 µM | [7] 24.9 µM | [18] 26.9 µM | [19] 26.1 µM | [8] 40.8 µM | [9] 21.4 µM | [10] 18.7 µM | [11] 21.8 µM | [20] 19.4 µM | [12] 24.5 µM | [13] 24.5 µM

COc1cc(/C=C/C(=O)OC[C@H](Br)[C@H](OC(C)=O)c2ccc3c(c2)OCO3)cc(OC)c1OC
inactive: [1] > 100 µM | [2] 48.8 µM | [15] > 100 µM | [16] > 100 µM | [3] 86.3 µM | [17] > 100 µM | [4] > 100 µM | [5] > 100 µM | [6] 52.5 µM | [7] > 100 µM | [18] > 100 µM | [19] > 100 µM | [9] > 100 µM | [11] > 100 µM | [20] > 100 µM | [12] > 100 µM | [13] > 100 µM

CS(=O)(=O)CSCSSCS(C)(=O)=O
inactive: [1] 20.7 µM | [2] 16.5 µM | [15] 74.3 µM | [16] 21.2 µM | [17] 40 µM | [4] 27.7 µM | [7] 25.4 µM | [18] 88.9 µM | [19] 14.9 µM | [8] > 63.4 µM | [9] 24.6 µM | [10] 21.1 µM | [20] 43.2 µM | [12] 19.2 µM | [13] 35.5 µM

Cc1cc2c(s1)C(N)CC2=O (stereo not drawn)
inactive: [1] > 100 µM | [2] > 100 µM | [15] > 100 µM | [16] > 100 µM | [3] > 100 µM | [17] > 100 µM | [5] > 100 µM | [6] > 100 µM | [7] > 100 µM | [18] > 100 µM | [8] > 100 µM | [9] > 100 µM | [10] > 100 µM | [11] > 100 µM | [20] > 100 µM | [12] > 100 µM

CC(C)OC(=O)/C=C/C(=O)O/C=C/[N+](=O)[O-]
inactive: [1] 21.3 µM | [2] 24.4 µM | [15] 31.7 µM | [16] 20.2 µM | [3] 26.6 µM | [17] > 100 µM | [5] 30.4 µM | [6] 12.7 µM | [7] 34 µM | [18] 14.1 µM | [9] 26.7 µM | [11] 23 µM | [20] 37.6 µM | [12] 30 µM | [13] 26.7 µM

CCc1cc(Cc2cc(CC)c(NC(=O)C3=CC(=O)CC(c4ccc(OC)cc4)O3)c(CC)c2Cl)c(Cl)c(CC)c1NC(=O)C1=CC(=O)CC(c2ccc(OC)cc2)O1 (stereo not drawn)
inactive: [1] 23.8 µM | [2] 22.5 µM | [15] 21.4 µM | [16] 17.3 µM | [17] 17.9 µM | [4] 20.8 µM | [7] 27.7 µM | [18] 21.7 µM | [8] 20 µM | [9] 23.3 µM | [10] 23.2 µM | [20] 20.7 µM | [12] 17 µM | [13] 17.1 µM
